Marks after values point to notes of the source that are not given here.
Experiments:
γ-globin mRNA = γ-globin mRNA in μLCR-human Aγ-globin transgenic mice; type: in vivo; conditions: after treatment with DMB
Source text: (§1) Transgenic mice containing the human β globin gene locus in a yeast artificial chromosome (βYAC) displaying the correct developmental regulation of ε-, γ-, and β-globin genes (with a silenced y-globin gene in the adult stage) were used to study the effects of DMB on γ-globin induction and erythroid cell production. In the μLCR-human A γ-globin transgenic mice, the y-globin mRNA expression relative to murine α-globin mRNA was increased by a mean of 1.8-fold above the baseline after treatment with DMB. In the βYAC transgenic mice at intraperitoneal (IP) doses of 500 mg/kg/day, DMB induced a 2-fold increase in human γ-globin mRNA synthesis relative to that of total non-α-globin. This level of induction was similar to that seen with 1,000 mg/kg/day of butyrate, and the changes were observed from 3 days after treatment initiation and persisted until 3 to 5 days after treatment termination.

human γ-globin mRNA = assay: Human γ-globin mRNA synthesis in βYAC transgenic mice; type: in vivo; conditions: IP 500 mg/kg/day
Source text: as §1

γ globin chain = γ globin chain protein synthesis in anemic baboons; type: in vivo; conditions: mean of three animals
Method: Expression of γ-globin and erythroid cell production was evaluated in a primate model in which baboons are phlebotomized on a daily basis to simulate the chronic RBC destruction associated with hemoglobinopathies. In this model, baboons, aged 2 to 3 years, had 2.5 to 7 mL/kg of blood withdrawn daily, and the volume replaced with an identical volume of normal saline. Hemoglobin levels were lowered relative to control levels, but were maintained between 6.5 to 7.5 g/dL, the level necessary for the modulation of globin genes in this animal species. The animals were supplemented with iron dextran and folic acid. The phlebotomy regimen effectively exchanged the animals' total blood volume every 10 to 20 days.
Globin chain protein synthesis was measured in DMB treated animals using ^3H-leucine-labeled reticulocytes before and 2 and 4 days after treatment. Complete blood counts and reticulocyte counts were monitored 3 times per week and plasma concentrations of the test article was determined. DMB was administered intravenously (IV, daily) or orally via nasogastric gavage under light anesthesia (on 3 alternating days per week for up to 6 weeks), on a dose-escalation schedule with starting doses of 500 to 800 mg/kg. If γ globin induction was observed, lower doses (40-200 mg/kg) were tested. Recombinant human erythropoietin (rhu-EPO) was also administered in separate treatment courses to 2 baboons at doses of 300 U/kg three times per week subcutaneously as a positive control for the erythropoietic effects of DMB. Treatments were performed in individual baboons.
Induction of γ globin chain expression was evaluated by measuring γ globin protein synthesis.

[1] = system: β- and γ-globin gene promoters; assay: Double-luciferase reporter assay of γ-globin expression in GM979 cells; type: cell-based, murine
Source text: DMB was compared to arginine butyrate (AB) for its ability to induce y-globin expression in a double-luciferase reporter assay in murine erythroleukemia (GM979) cells transfected with the pLCR linked to the β- and γ-globin gene promoters linked to a different luciferase gene.

CYP2C9 = biological target: T1, CYP2C9 (Homo sapiens, UniProt P11712); assay: Cytochrome P450 inhibition in human hepatic microsomes; type: in vitro ADME
T1 construct: from tissue; host or cells: human hepatic microsomes
Method: (§2) The inhibitory potential of DMB on the human cytochrome P450 activities involved in the metabolism of phenacetin O-deethylase (CYP1A2), bupropion hydroxylase (CYP2B6), amodiaquine N-deethylase (CYP2C8), diclofenac 4′-hydroxylase (CYP2C9), S-mephenyloin 4′-hydroxylase (CYP2C19), bufuralol 1′-hydroxylase (CYP2D6), testosterone 6β-hydroxylase (CYP3A), and midazolam 1′-hydroxylase (CYP3A) was assessed in vitro using human hepatic microsomes. Microsomes were incubated with isoenzyme-selective substrates at concentrations approximating the Km value in the absence and presence of DMB (at concentrations ranging from 0.1 to […]). The extent of inhibition was assessed by comparing activities from control and DMB-treated microsomes. […] Percent activity remaining was high for all cytochrome P450 assays with 80% activity remaining compared with control activities.

CYP2B6 = biological target: T2, CYP2B6 (Homo sapiens, UniProt P20813); assay: as above; type: in vitro ADME
T2 construct: from tissue; host or cells: human hepatic microsomes
Method: as §2

[2] = system: E. coli tester strain WP2uvrA; assay: Ames reverse bacterial mutagenicity test; conditions: with and without S9 mix
Method: (§3) The standard battery of in vitro genetic toxicity tests were conducted with DMB. These tests were conducted with positive and vehicle controls, with and without metabolic activation, as appropriate, and in accordance with accepted guidelines.
(§4) For the Ames (reverse bacterial mutagenicity test), the tester strains used in the mutagenicity assay were S. typhimurium tester strains TA98, TA100, TA1535, and TA1537 and E. coli tester strain WP2uvrA. The assay was conducted in both the presence and absence of S9 mix along with concurrent vehicle and positive controls using three plates per dose.

[3] = system: S. typhimurium tester strains TA98, TA100, TA1535, and TA1537; assay: Ames reverse bacterial mutagenicity test; conditions: with and without S9 mix
Method: as §3, §4

Solubility in water = type: physicochemical
in vivo [4] = assay: in vivo; parameters: species or system Sprague-Dawley rats; conditions: rat; for NOAEL at 14 days: Sprague-Dawley
Method: […] With respect to the FOB measurements, the effect of DMB appeared to be more pronounced in females than males. […] However, decreased motor activity, reduced rectal temperature, direct limbic effects such as a deficit in visual tactile placing accuracy, ataxia, dragging of the hindlimbs in the open field, and decreased grip strength and neuromotor-neuromuscular deficits were only documented in the female rats at 600 mg/kg. In the male rats, these effects were present only in the animals treated with 1,000 mg/kg.

in vivo [5] = type: in vivo
Source text: Completed toxicology studies conducted with DMB include a single-dose toxicity study in Sprague-Dawley rats, escalating dose toxicity study in Beagle dogs, a repeat dose study of 14-Day duration in Sprague-Dawley rats and repeat-dose toxicity studies of 28-Day duration in Sprague-Dawley rats and Beagle dogs, and 26-Week studies in Sprague-Dawley rats and Beagle dogs. […] Reproductive toxicity studies include two dose-range finding studies, one in Sprague-Dawley rats, the other in New Zealand white rabbits. DMB was administered once a day (QD) orally via gavage; doses are expressed as the sodium salt. In addition, an array of genotoxicity studies were conducted with DMB.
There were no abnormal macroscopic or microscopic observations associated with the elevated kidney or brain weights. These treatment-related findings were not considered adverse. The NOAEL for DMB administered to Sprague-Dawley rats for a minimum of 181 days was considered to be 500 mg/kg/day, whereas the NOEL for female Sprague-Dawley rats was 100 mg/kg/day.

[6] = compared with control activities

T1 sequence (P11712 whole entry): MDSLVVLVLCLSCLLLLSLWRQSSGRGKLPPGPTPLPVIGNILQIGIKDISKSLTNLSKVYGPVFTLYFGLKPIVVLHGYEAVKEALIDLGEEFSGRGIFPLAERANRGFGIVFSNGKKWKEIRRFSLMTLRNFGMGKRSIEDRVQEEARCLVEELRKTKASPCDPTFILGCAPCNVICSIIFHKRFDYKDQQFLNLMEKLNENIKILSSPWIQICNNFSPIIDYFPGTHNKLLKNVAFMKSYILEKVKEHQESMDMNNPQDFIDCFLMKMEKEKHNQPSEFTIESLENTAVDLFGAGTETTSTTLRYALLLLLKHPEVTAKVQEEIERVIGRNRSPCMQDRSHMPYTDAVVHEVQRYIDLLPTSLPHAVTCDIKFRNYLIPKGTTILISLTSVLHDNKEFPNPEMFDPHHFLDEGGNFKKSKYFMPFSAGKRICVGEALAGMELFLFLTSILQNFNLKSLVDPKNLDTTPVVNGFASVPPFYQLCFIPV
T2 sequence (P20813 whole entry): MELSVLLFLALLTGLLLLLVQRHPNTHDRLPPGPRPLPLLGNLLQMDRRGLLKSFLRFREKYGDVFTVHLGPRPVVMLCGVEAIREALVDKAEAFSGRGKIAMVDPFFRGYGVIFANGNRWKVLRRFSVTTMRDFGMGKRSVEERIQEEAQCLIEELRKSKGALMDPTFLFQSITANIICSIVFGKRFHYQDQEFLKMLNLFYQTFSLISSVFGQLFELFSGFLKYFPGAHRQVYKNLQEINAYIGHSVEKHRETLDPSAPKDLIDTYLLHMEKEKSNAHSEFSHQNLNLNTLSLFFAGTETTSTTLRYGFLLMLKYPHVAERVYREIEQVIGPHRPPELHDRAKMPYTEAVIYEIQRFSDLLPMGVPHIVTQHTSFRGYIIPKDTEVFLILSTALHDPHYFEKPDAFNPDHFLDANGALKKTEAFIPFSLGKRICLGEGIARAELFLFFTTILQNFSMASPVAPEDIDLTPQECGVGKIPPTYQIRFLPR

With CCC(C)(C)C(=O)[O-].[Na+] [DMB, Sodium 2,2-dimethylbutyrate] the “γ-globin mRNA expression relative to murine α-globin mRNA, mean increase above baseline” value (γ-globin mRNA) was 1.8 fold, the “increase in human γ-globin mRNA synthesis relative to total non-α-globin” value (human γ-globin mRNA) was 2 fold and the “Increase % γ Globin Chain Synthesis” value (γ globin chain) was 6.6%. The “Increase Fold (γ globin chain synthesis)” value (γ globin chain) was 2.9, the “% γ Globin Chain Synthesis, Treatment” value (γ globin chain; baseline 3.4) was 10.0% and the “Mean Fold Increase” value ([1]; 0.5 mM, compared to untreated controls, p ≦ 0.01) was 2.2*. For the same molecule, the “γ/(γ + β) globin Expression, Range” value ([1]; Active Concentration 0.5 mM) was 0.033-0.052, the “inhibition of diclofenac 4′-hydroxylase (CYP2C9)” value (CYP2C9; DMB up to 300 μM) was “no significant inhibition” and the “Percent activity remaining, diclofenac 4′-hydroxylase (CYP2C9)” value (CYP2C9; [6]) was 80%. The “inhibition of bupropion hydroxylase (CYP2B6)” value (CYP2B6; DMB up to 300 μM) was “no significant inhibition”, the “Percent activity remaining, bupropion hydroxylase (CYP2B6)” value (CYP2B6; [6]) was 80% and the “cytotoxicity (background lawn growth)” value [2] was “no cytotoxicity was observed”. The mutation counts ([2]; up to 5000 per plate) was “No increase in mutation counts”, the “cytotoxicity (background lawn growth)” value [3] was “no cytotoxicity was observed” and the mutation counts ([3]; up to 5000 per plate) was “No increase in mutation counts”. The solubility (Solubility in water) was > 500 mg/mL, the NOAEL at 14 days (in vivo [4]; female) was 200 mg/kg/day and the NOAEL at 14 days (in vivo [4]; male) was 600 mg/kg/day. The “FOB effects after two-week drug free period” value (in vivo [4]) was “no residual FOB effects”, the NOAEL at 181 days (in vivo [5]; both sexes, rat, in vivo, minimum of 181 days, oral) was 500 mg/kg/day and the “mortalities or clinical observations” value (in vivo [5]; daily oral, 26 weeks) was “no test article-associated mortalities or clinical observations”. For the same molecule, the NOEL (in vivo [5]; female, Sprague-Dawley, rat, in vivo, 181 days) was 100 mg/kg/day, the adverse effects (in vivo [5]; rat, in vivo) was “no adverse effects” and the “mean absolute and relative liver weights” value (in vivo [5]; rat, in vivo, 500 mg/kg/day) was “associated increases”.

— patent publication US8618068B2, “Methods and low dose regimens for treating red blood cell disorders” (priority 2009, dated 2013)
